Measured values reported in patent US9695155B2, “Herbicidal substituted pyrimidinyloxy benzene compounds” (E. I. DU PONT DE NEMOURS AND COMPANY, priority 2013, dated 2017).

Columns and labels:
soybean = assay: Test E postemergence; type: in vivo, Glycine max
From the text: (§1) Seeds of plant species selected from corn (Zea mays), soybean (Glycine max), velvetleaf (Abutilon theophrasti), lambsquarters (Chenopodium album), wild poinsettia (Euphorbia heterophylla), palmer pigweed (Amaranthus palmeri), waterhemp (common waterhemp, Amaranthus rudis), surinam grass (Brachiaria decumbens), large (Lg) crabgrass (Digitaria sanguinalis), Brazilian crabgrass (Digitaria horizontalis), fall panicum (Panicum dichotomiflorum), giant foxtail (Setaria faberii), green foxtail (Setaria viridis), goosegrass (Eleusine indica), johnsongrass (Sorghum halepense), ragweed (common ragweed, Ambrosia elatior), barnyardgrass (Echinochloa crus-galli), sandbur (southern sandbur, Cenchrus echinatus), arrowleaf sida (Sida rhombifolia), Italian ryegrass (Lolium multiflorum), dayflower (Virginia (VA) dayflower, Commelina virginica), field bindweed (Convolvulus arvensis), morningglory (Ipomoea coccinea), nightshade (eastern black nightshade, Solanum ptycanthum), kochia (Kochia scoparia), yellow nutsedge (Cyperus esculentus), cocklebur (common cocklebur, Xanthium strumarium), smartweed (ladysthumb smartweed, and hairy beggarticks (Bidens pilosa), were planted into a silt loam soil and treated preemergence with test chemicals formulated in a non-phytotoxic solvent mixture which included a surfactant.
(§2) At the same time, plants from these crop and weed species and also horseweed (Canada horseweed, Conyza canadensis), waterhemp_RES1, (ALS & Triazine resistant common waterhemp, Amaranthus rudis), and waterhemp_RES2, (ALS & HPPD resistant common waterhemp, Amaranthus rudis) were planted in pots containing Redi-Earth® planting medium (Scotts Company, 14111 Scottslawn Road, Marysville, Ohio 43041) comprising spaghnum peat moss, vermiculite, wetting agent and starter nutrients were treated with postemergence applications of test chemicals formulated in the same manner. Plants ranged in height from 2 to 18 cm for postemergence treatments (1- to 4-leaf stage). Treated plants and controls were maintained in a greenhouse for 14 to 21 days, after which time all species were compared to controls and visually evaluated. Plant response ratings, summarized in Table E, are based on a scale of 0 to 100 where 0 is no effect and 100 is complete control. A dash (-) response means no test result.

corn = assay: Test E postemergence; type: in vivo, Zea mays
From the text: as §1, §2

[1] = Postemergence, 31 g ai/ha, scale 0 to 100
[2] = Postemergence, 62 g ai/ha, scale 0 to 100
[3] = Postemergence, 125 g ai/ha, scale 0 to 100
[4] = Postemergence, 250 g ai/ha, scale 0 to 100
[5] = postemergence, 16 g ai/ha, scale 0 to 100, 0 no effect, 100 complete control
[6] = postemergence, 8 g ai/ha, scale 0 to 100, 0 no effect, 100 complete control

`Fc1cnc(Oc2ccccc2-n2cc(Br)cn2)nc1` [Compound 10, 2-[2-(4-bromo-1H-pyrazol-1-yl)phenoxy]-5-fluoropyrimidine] was tested. Which plant response (crop injury) rating, soybean, 0-100 scale at 31 g/ha (soybean; Glycine max, post-emergence, Postemergence, 31 g ai/ha, scale 0 to 100) did it give?
Its plant response (crop injury) rating, soybean, 0-100 scale at 31 g/ha is 50%.

And the plant response (crop injury) rating, soybean, 0-100 scale at 62 g/ha (soybean; Glycine max, post-emergence, Postemergence, 62 g ai/ha, scale 0 to 100)?
The plant response (crop injury) rating, soybean, 0-100 scale at 62 g/ha was 75%.

And the plant response (crop injury) rating, soybean, 0-100 scale at 125 g/ha (soybean; Glycine max, post-emergence, Postemergence, 125 g ai/ha, scale 0 to 100)?
The plant response (crop injury) rating, soybean, 0-100 scale at 125 g/ha was 90%.

And the plant response (crop injury) rating, soybean, 0-100 scale at 250 g/ha (soybean; Glycine max, post-emergence, Postemergence, 250 g ai/ha, scale 0 to 100)?
Its plant response (crop injury) rating, soybean, 0-100 scale at 250 g/ha is 95%.

What about the plant response (crop injury) rating, soybean, 0-100 scale at 16 g/ha (soybean; Glycine max, post-emergence, postemergence, 16 g ai/ha, scale 0 to 100, 0 no effect, 100 complete control) of the same compound?
The plant response (crop injury) rating, soybean, 0-100 scale at 16 g/ha was 30%.

And the corn plant response (injury) rating, 0-100 at 31 g/ha (corn; Zea mays, post-emergence, Postemergence, 31 g ai/ha, scale 0 to 100)?
The corn plant response (injury) rating, 0-100 at 31 g/ha was 0%.

What about the corn plant response (injury) rating, 0-100 at 62 g/ha (corn; Zea mays, post-emergence, Postemergence, 62 g ai/ha, scale 0 to 100) of the same compound?
Its corn plant response (injury) rating, 0-100 at 62 g/ha is 0%.

What about the corn plant response (injury) rating, 0-100 at 125 g/ha (corn; Zea mays, post-emergence, Postemergence, 125 g ai/ha, scale 0 to 100) of the same compound?
Its corn plant response (injury) rating, 0-100 at 125 g/ha is 0%.

What about the corn plant response (injury) rating, 0-100 at 250 g/ha (corn; Zea mays, post-emergence, Postemergence, 250 g ai/ha, scale 0 to 100) of the same compound?
Its corn plant response (injury) rating, 0-100 at 250 g/ha is 0%.

What about the corn plant response (injury) rating, 0-100 at 16 g/ha (corn; Zea mays, post-emergence, postemergence, 16 g ai/ha, scale 0 to 100, 0 no effect, 100 complete control) of the same compound?
The corn plant response (injury) rating, 0-100 at 16 g/ha was 0%.

With `FC(F)(F)c1cnn(-c2ccccc2Oc2ncc(Cl)cn2)c1` [Compound 16] as the compound, how does the “Plant response rating, Soybean” value (soybean; [1]) read?
The value was 30.

What about the “Plant response rating, Soybean” value (soybean; [2]) of the same compound?
Its value is 80.

What about the “Plant response rating, Soybean” value (soybean; [3]) of the same compound?
The value was 95.

And the “Plant response rating, Soybean” value (soybean; [4])?
Its value is 95.

What about the “Plant response rating, Soybean” value (soybean; [5]) of the same compound?
Its value is 15.

What about the “Plant response rating, Corn” value (corn; [1]) of the same compound?
Its value is 0.

What about the “Plant response rating, Corn” value (corn; [2]) of the same compound?
The value was 0.

And the “Plant response rating, Corn” value (corn; [3])?
The value was 10.

And the “Plant response rating, Corn” value (corn; [4])?
Its value is 15.

What about the “Plant response rating, Corn” value (corn; [5]) of the same compound?
The value was 0.

What does the source list for `Clc1cnc(Oc2cccc(Br)c2-n2cc(Br)cn2)nc1` [Compound 65]?
Plant response rating, Soybean (soybean; [1]): 20; Plant response rating, Soybean (soybean; [2]): 50; Plant response rating, Soybean (soybean; [3]): 98; Plant response rating, Soybean (soybean; [6]): 15; Plant response rating, Soybean (soybean; [5]): 20; Plant response rating, Corn (corn; [1]): 10; Plant response rating, Corn (corn; [2]): 10; Plant response rating, Corn (corn; [3]): 10; Plant response rating, Corn (corn; [6]): 0; Plant response rating, Corn (corn; [5]): 0
